For data set [1], the system named is L6 myotubes. As to the kind of experiment: Glucose uptake colorimetric assay (2-deoxy glucose) in differentiated L6 cells. The class given is cell-based. The following applies: insulin challenge versus serum-free control (FIG. 2). On the procedure:
The objective of the study was to evaluate the anti-diabetic action of herbal blends. The ability to enhance glucose consumption by skeletal muscle was evaluated in L6 myotubes model in comparison to various control groups, including two known traditional reference formulae.
Cell culturing, materials preparations and all treatments were performed under sterile conditions. The L6 Cells culture medium comprised A-MEM supplemented with 100 U/ml penicillin and 100 μg/ml streptomycin and 10% FBS, sterilely filtered. The L6 cells differentiation medium comprised α-MEM supplemented with 100 U/ml penicillin and 100 μg/ml streptomycin and 2% FBS, sterilely filtered. […]
Glucose uptake assay was performed using Glucose Uptake Colorimetric Assay Kit in the non-radioactive 2-deoxy glucose derivative, according to the manufacturers' instructions in KRBH buffer, on differentiated cells. Colorimetric data was quantified by the use of a standard curve. Glucose uptake in the control (naïve cells), vehicle (DDW), and insulin-treated cells was measured.
Glucose uptake assay was then performed for the two concentrations of tested items: at 50 μg/mL and at 5 μg/mL. […] It can be readily appreciated from the FIG. 3 that the composition of eight ingredients composition was equipotent to QWS and BHT (denoted as “c1” and c2”) at the concentration of 50 μg/mL. […]

For data set [2] the following is noted: human, in vivo. The method, then: Patient 1: a person, suffering from diabetic leg complications and a non-healing wound on the minimus, indicated for amputation. The patient was treated with the composition as in the example 5, TI.1-8HC, 3 grams per day, for 20 days. The treatment was supported with suitable acupuncture protocol, and topical antibiotic preparations.
Patient 2: a person, suffering from diabetes, a completer of the clinical trial similar to the described in the Example 3, proceeded with the open-label extension for further 3 months and achieved a 24% reduction in the fasting glucose levels. Thereafter the dose was increased to 1500 mg twice daily, and after one month a complete control over fasting glucose level has been achieved (below 140 mg/dL). Low-carbohydrate diets was prescribed to maintain the achievement. The patient presented a year after with fasting blood glucose of over 160; requested and was prescribed raw fan shi liu ye 10000 mg per day (as decoction—10 minutes boiling, chilling, and consumption). After 10 days the fasting blood glucose declined to between 120 and 130 mg/dL, but the patient suffered from fatigue and reverted to the experimental chocolate.
Patient 3: a person, presented during COVID-19 pandemics with fasting blood glucose of 150 mg/dL, HA1C of 7.4, with anxiety and uncontrolled eating. […]

As to insulin, the “glucose uptake by muscle cells” value in data set [1] is “significantly increased”.
For Psidium guajava L. [fan shi liu ye], in data set [2], the “tolerability of treatment over extended time” value is given as “could not be well tolerated”.

These data come from patent US20230405071A1, “COMPOSITIONS AND METHODS USEFUL FOR MANAGEMENT OF BLOOD SUGAR” (SOLVEAT FUNCTIONAL NUTRITION SOLUTIONS LTD., priority 2020, published 2023).
